The record followed here is patent US5380713A, “Peptide aldehydes as antithrombotic agents” (Bristol-Myers Squibb Company, priority 1994, dated 1995).

Non-standard residues stand in square brackets, D forms with d. Residues, ends and D or L forms follow the SMILES beside them. *: point of attachment. Hydrocinnamoyl = O=C(CCc1ccccc1)*; PhAc = O=C(Cc1ccccc1)*; Bz = O=C(c1ccccc1)*

One data set deals with thrombin clotting time. Nature of the data set: Ex vivo clotting time prolongation after oral dosing of rats. Type of data set: in vivo, rat. To be noted: rats dosed orally (p.o.), three per group; clotting time measured ex vivo. The procedure: Human citrated plasma obtained from human volunteers or citrated plasma obtained from dosed animals (prepared as described below). 25 NIH Units/ml human α-thrombin in thrombin buffer for use with rat plasma. 10 NIH Units/ml human α-thrombin in thrombin buffer for use with human plasma. Dosing: Test compound was prepared just prior to dosing. Routinely the drugs are dissolved in water. Occasionally other vehicles are used, such as PEQ-200 stock solutions are vortex mixed and animals are dosed p.o. using a 3 ml syringe with an 18-19 gauge oral gavage needle or i.p. injection. Blood Drawing for Rats: After the appropriate time period, the animals were ether-anesthetized, and blood was drawn by cardiac puncture using 333 μl of 3.8% sodium citrate per 3 ml blood. […] Clotting times were determined by pipetting 0.1 ml of Owren's buffer (pre-warmed to 37° C.) and 0.1 ml of human or rat plasma into yellow sample cuvettes. For studies with human plasma 10 U/ml human thrombin (10 ml) was placed in the reservoir assembly station of the MLA 700. (Medical Laboratory Automation, Electra 700 Reservoir Assembly). For rat studies, the human thrombin concentration was 25 U/ml. The cuvettes were vortexed and then placed on the MLA 700 sample wheel. The coagulation timer (MLA 700) automatically dispenses 0.1 ml human thrombin into the sample in each cuvette. Detection of the fibrin clot was determined optically by the MLA 700. In separate studies, compounds were dosed orally (p.o.) to three rats in each study group. […] Consequently, they are useful in controlling blood coagulation in mammals including humans.

The target of another data set is T1, human thrombin (Homo sapiens, UniProt P00734).
T1 construct: 10U/ml human thrombin
Nature of the data set: Thrombin clotting time in pooled human plasma, initial effect before incubation. The format is biochemical. To be noted: 3.3 U/ml human thrombin, 37° C.

Data set [1] is described as follows: Clotting time after incubation of compound in water at 40° C. (stability). The format is physicochemical. The conditions noted are these: 50 μM stock in deionized water, 0.25-24 hours, FIG. 1. The procedure:
CLOTTING TIME AFTER INCUBATION OF COMPOUND IN WATER AT 40° C.
Fresh blood was drawn from two human donors into vacutainer tubes containing buffered sodium citrate (16 mg sodium citrate and 2.1 mg citric acid per 4.5 ml of blood). The tubes were centrifugated immediately at 1920×g for 15 minutes to obtain fresh platelet poor plasma. The plasma was pooled and 10 ml aliquots were divided into three test tubes. Two tubes were frozen and maintained at -20° C. for future use and one tube was kept on ice throughout testing.
The compound of Example 14 and D-Phe-Pro-Arg aldehyde: H2 SO4 were prepared as stock solutions (50 μM) in deionized water. […] After the initial effect of these compounds on clotting time was determined, the compounds were placed in a 40° C. water bath for various time intervals (from 0.25-24 hours) and aliquots were withdrawn to determine the effect of the incubation on clotting time.
Clotting times were measured optically using the Medical Laboratory Automation Electra 700 (MLA 700). Test cuvettes contained 0.1 ml of pre-warmed Owren's buffer, 0.1 ml of the human plasma and 1.2 and 3.0 μl of the test compounds dissolved in water. […] Clotting time was determined at 37° C. after the addition of 0.1 ml of 10U/ml human thrombin (final concentration=3.3 U/ml).
The stability of the compounds of the present invention were measured or described in the biological procedures. […]

Procedure for human thrombin: Clotting times were measured optically using the Medical Laboratory Automation Electra 700 (MLA 700). Test cuvettes contained 0.1 ml of pre-warmed Owren's buffer, 0.1 ml of the human plasma and 1.2 and 3.0 μl of the test compounds dissolved in water. The cuvette was then vortex mixed and placed on the MLA 700 sample wheel. Clotting time was determined at 37° C. after the addition of 0.1 ml of 10U/ml human thrombin (final concentration=3.3 U/ml).

Regarding `C[C@H](NC(=O)[C@H](N)Cc1ccccc1)C(=O)N[C@H](C=O)CCCNC(=N)N.O=S(=O)(O)O` [Example 19, N^α -[D-Phenylalanyl-L-alanyl]-L-arginine aldehyde Sulfate] (H-[dF]-Ala-Arg-aldehyde), the DTT in the data set with thrombin clotting time was 110 mg/kg. On the same count and under the same terms, with `Cl.Cl.N=C(N)NCCC[C@@H](C=O)NC(=O)[C@@H]1CCCN1C(=O)[C@@H](Cc1ccccc1)NC(=O)CN` [Example 16, N^α -[Glycl-D-phenylalanyl-L-prolyl]-L-arginine aldehyde Dihydrochloride] (H-G[dF]PR-aldehyde) the figure was 50 mg/kg. Still for that read-out and setting: with `Cl.N=C(N)NCCC[C@@H](C=O)NC(=O)[C@@H]1CCCN1C(=O)c1ccccc1` [Example 9, Nα-[N-Benzoyl-L-prolyl]-L-arginine aldehyde Hydrochloride] (Bz-Pro-Arg-aldehyde) the figure was 150 mg/kg. Consider `N=C(N)NCCC[C@@H](C=O)NC(=O)[C@@H]1CCCN1C(=O)[C@H](N)Cc1ccccc1` [D-Phe-Pro-Arg aldehyde, D-Phe-Pro-Arg aldehyde: H2 SO4, reference compound], for which the “final concentration which initially caused prolongation of clotting time to approximately three times control value” at human thrombin was 0.5 µM. On to `Cl.Cl.N=C(N)NCCC[C@@H](C=O)NC(=O)[C@@H]1CCCN1C(=O)CCc1cccnc1` [Example 8, N^α [N-(3-(3-Pyridyl)propanoyl)-L-Prolyl]-L-arginine aldehyde Dihydrochloride], for which the DTT with thrombin clotting time is on record as ~ 100 mg/kg. For the molecule `Cl.N=C(N)NCCC[C@@H](C=O)NC(=O)[C@@H]1CCCN1C(=O)CCc1ccccc1` [Example 14, N^α -[N-(3-Phenylpropanoyl)-L-prolyl]-L-arginine aldehyde Hydrochloride] (Hydrocinnamoyl-Pro-Arg-aldehyde), the DTT in the data set on thrombin clotting time turned out to be 60 mg/kg. At human thrombin, the “final concentration which initially caused prolongation of clotting time to approximately three times control value” turned out to be 0.2 µM. In data set [1], the “stability in water (effect of incubation on clotting time)” value is “more stable than the corresponding D-phe compound”. In the data set with thrombin clotting time, `Cl.N=C(N)NCCC[C@@H](C=O)NC(=O)[C@@H]1CCCN1C(=O)Cc1ccccc1` [Example 12, N^α -[N-Phenylacetyl-L-prolyl]-L-arginine aldehyde Hydrochloride] (PhAc-Pro-Arg-aldehyde) had a DTT of 100 mg/kg. With `Cl.N=C(N)NCCC[C@@H](C=O)NC(=O)[C@@H]1CCCN1C(=O)CCC1CCCCC1` [Example 13, N^α -[N-(3-Cyclohexylpropanoyl)-L-prolyl]-L-arginine aldehyde Hydrochloride], the DTT with thrombin clotting time is 100 mg/kg.
